Test system: 695427-040-R-J1-PDC complex spheroid viability
Assay: Anticancer human tumor 695427-040-R-J1-PDC patient-derived colon adenocarcinoma cell line growth inhibition [POLQ]
Settings: for IC50: curve of first compound; for viability, T/C: stronger effect = lower value
Procedure: Multicellular complex tumor spheroid response to Polymerase (POL) inhibitors (novobiocin, ART-558, RP6685) in combination with a variety of drugs and investigational agents in selected tumor cell lines
The POL inhibitors (novobiocin, ART-558, and RP6685) were evaluated both individually and in combination with standard of care and investigational anticancer small molecules within a complex spheroid model of solid tumors. . Complex spheroids include a stromal component modeled by human endothelial cells (HUVEC) and fibroblasts modeled by human mesenchymal stem cells (MSCs). The concentration ranges selected for each drug and investigational agent were based upon clinically achievable concentrations if the clinical Cmax of the agent was known.
Compounds. The drugs and investigational agents: novobiocin (NSC847541), ART-558 (NSC835418), RP-6685 (NSC848927), peposertib (NSC802822), ceralasertib (NSC780249), elimusertib (NSC800525), camonsertib (NSC841442), AZD-1390 (NSC803789), olaparib (NSC753686), talazoparib (NSC767125), rucaparib (NSC756644), sotorasib (NSC818433), MRTX-1133 (NSC836407), SN-38 (NSC673596), topotecan (NSC609699), epotoside (NSC141540), doxorubicin (NSC123127), gemcitabine (NSC613327), 5-fluorouracil (NSC19893), paclitaxel (NSC125973), vemurafenib (NSC761431), MSA-2 (NSC828583), SN-011 (NSC837082), adavosertib (NSC754352), prexasertib (NSC758257), carboplatin (NSC241240) and oxaliplatin (NSC266046), were obtained from the National Cancer Institute (NCI) Developmental Therapeutics Program Chemical Repository (21). The FDA-approved anticancer drug set is available from the Developmental Therapeutics Program at https://dtp.cancer.gov/organization/dscb/obtaining/. […] The stock solutions were prepared in dimethyl sulfoxide (DMSO, Sigma-Aldrich, St. Louis, MO, cat. D2650), except for the platinum compounds which were prepared in saline (Quality Biological, Gaithersburg, MD, cat. 114-055-101), at 800-fold the tested concentration and stored at -70 degrees C prior to their use. All drugs and investigational agents were tested over a range starting from a high concentration at or near the clinical Cmax and decreasing in half-log increments. If the clinical Cmax for an agent had not been determined, the highest concentration tested was 10 microM, except for SN-38, which was tested at a high concentration of 1 microM.
Cell Culture. All cells were maintained in an incubator at 37 degrees C and 5% CO2 with 95% humidity. The PDC lines were cultured according to standard operating procedures established by the NCI PDMR (https://pdmr.cancer.gov). Table 3 of the manuscript, lists the cell lines along with the number of the three cell types plated to form the mct-spheroids and media for tumor cell growth. After thawing, all PDC lines, except 997537-175-T-J1-PDC and 415267-285-R-J2-PDC, were cultured in Matrigel-coated flasks prepared with a working solution of 1X Ham's F-12 nutrient mix, without supplementation (Thermo Fisher Scientific, cat. 11765054), 100 U/mL penicillin-streptomycin (Thermo Fisher Scientific, cat. 15140122), and 2.5% Matrigel (Corning Inc., Corning, NY, cat. 354248) for the first three passages. The two PDC lines 997537-175-T-J1-PDC and 415267-285-R-J2-PDC were cultured on uncoated flasks. The 857933-349-R-J2-PDC line was cultured in 6C/Colon 1B media containing advanced DMEM/F-12 (Thermo Fisher Scientific, cat. 12634028), 10 mM HEPES (Thermo Fisher Scientific, cat. 15630080), 1X GlutaMAX supplement (Thermo Fisher Scientific, cat. 35050061), 0.1 mg/mL primocin (InvivoGen, San Diego, CA, cat. ant-pm-2), 10% defined fetal bovine serum, heat inactivated (HyClone Laboratories Inc., Logan, UT, cat. SH30070.03HI), 50% L-WRN conditioned media (ATCC, cat. CRL-3276), 1.25 mM N-Acetyl-L-cysteine (Sigma-Aldrich, cat. A9165), 10 mM nicotinamide (Sigma-Aldrich, cat. N0636), 1X B-27 supplement (Thermo Fisher Scientific, cat. 17504044), 1X N-2 supplement (Thermo Fisher Scientific, cat. […]

[1] = second compound 0.0316 µM, first compound 0.0316 µM
[2] = second compound 0.0316 µM, first compound 0.1 µM
[3] = second compound 0.1 µM, first compound 0.0316 µM
[4] = second compound 0.1 µM, first compound 0.1 µM
[5] = second compound 0.316 µM, first compound 0.0316 µM
[6] = second compound 0.316 µM, first compound 0.1 µM
[7] = second compound 1 µM, first compound 0.0316 µM
[8] = second compound 1 µM, first compound 0.1 µM
[9] = second compound 3.16 µM, first compound 0.0316 µM
[10] = second compound 3.16 µM, first compound 0.1 µM
[11] = second compound 10 µM, first compound 0.0316 µM
[12] = second compound 10 µM, first compound 0.1 µM
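Note: spheroids exposed to compounds for seven days.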
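Throughout, for viability, T/C: 100% = DMSO vehicle control viability.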

Structure (SMILES): Cn1ncnc1[C@H]1c2n[nH]c(=O)c3cc(F)cc(c23)N[C@@H]1c1ccc(F)cc1 + COC1C(OC(N)=O)C(O)C(Oc2ccc3c(O)c(NC(=O)c4ccc(O)c(CC=C(C)C)c4)c(=O)oc3c2C)OC1(C)C
- IC50 (second compound 0.0316 µM): > 0.1 µM
- IC50 (second compound 0.1 µM): > 0.1 µM
- IC50 (second compound 0.316 µM): > 0.1 µM
- IC50 (second compound 1 µM): > 0.1 µM
- IC50 (second compound 3.16 µM): > 0.1 µM
- IC50 (second compound 10 µM): > 0.1 µM
- viability, T/C (second compound 0.0316 µM, first compound 0.000316 µM): 92%
- viability, T/C (second compound 0.0316 µM, first compound 0.001 µM): 96.6%
- viability, T/C (second compound 0.0316 µM, first compound 0.00316 µM): 93.5%
- viability, T/C (second compound 0.0316 µM, first compound 0.01 µM): 105%
- viability, T/C [1]: 106%
- viability, T/C [2]: 84.1%
- viability, T/C (second compound 0.1 µM, first compound 0.000316 µM): 99.4%
- viability, T/C (second compound 0.1 µM, first compound 0.001 µM): 93.3%
- viability, T/C (second compound 0.1 µM, first compound 0.00316 µM): 107%
- viability, T/C (second compound 0.1 µM, first compound 0.01 µM): 101%
- viability, T/C [3]: 98.4%
- viability, T/C [4]: 83.8%
- viability, T/C (second compound 0.316 µM, first compound 0.000316 µM): 106%
- viability, T/C (second compound 0.316 µM, first compound 0.001 µM): 101%
- viability, T/C (second compound 0.316 µM, first compound 0.00316 µM): 98.4%
- viability, T/C (second compound 0.316 µM, first compound 0.01 µM): 106%
- viability, T/C [5]: 103%
- viability, T/C [6]: 92.1%
- viability, T/C (second compound 1 µM, first compound 0.000316 µM): 103%
- viability, T/C (second compound 1 µM, first compound 0.001 µM): 101%
- viability, T/C (second compound 1 µM, first compound 0.00316 µM): 96.3%
- viability, T/C (second compound 1 µM, first compound 0.01 µM): 95.1%
- viability, T/C [7]: 93.9%
- viability, T/C [8]: 91%
- viability, T/C (second compound 3.16 µM, first compound 0.000316 µM): 96.6%
- viability, T/C (second compound 3.16 µM, first compound 0.001 µM): 90.9%
- viability, T/C (second compound 3.16 µM, first compound 0.00316 µM): 90.9%
- viability, T/C (second compound 3.16 µM, first compound 0.01 µM): 98.3%
- viability, T/C [9]: 105%
- viability, T/C [10]: 94.6%
- viability, T/C (second compound 10 µM, first compound 0.000316 µM): 103%
- viability, T/C (second compound 10 µM, first compound 0.001 µM): 99.6%
- viability, T/C (second compound 10 µM, first compound 0.00316 µM): 99%
- viability, T/C (second compound 10 µM, first compound 0.01 µM): 106%
- viability, T/C [11]: 113%
- viability, T/C [12]: 101%

Structure (SMILES): O=C(Nc1ccc(O)c(NS(=O)(=O)c2ccc(F)cc2)c1)c1ccc(-c2ccccc2)cc1 + COC1C(OC(N)=O)C(O)C(Oc2ccc3c(O)c(NC(=O)c4ccc(O)c(CC=C(C)C)c4)c(=O)oc3c2C)OC1(C)C
- IC50 (second compound 0.0316 µM): > 10 µM
- IC50 (second compound 0.1 µM): > 10 µM
- IC50 (second compound 0.316 µM): > 10 µM
- IC50 (second compound 1 µM): > 10 µM
- IC50 (second compound 3.16 µM): > 10 µM
- IC50 (second compound 10 µM): > 10 µM
- viability, T/C [1]: 104%
- viability, T/C [2]: 97.7%
- viability, T/C (second compound 0.0316 µM, first compound 0.316 µM): 105%
- viability, T/C (second compound 0.0316 µM, first compound 1 µM): 103%
- viability, T/C (second compound 0.0316 µM, first compound 3.16 µM): 103%
- viability, T/C (second compound 0.0316 µM, first compound 10 µM): 89.3%
- viability, T/C [3]: 116%
- viability, T/C [4]: 99.9%
- viability, T/C (second compound 0.1 µM, first compound 0.316 µM): 106%
- viability, T/C (second compound 0.1 µM, first compound 1 µM): 102%
- viability, T/C (second compound 0.1 µM, first compound 3.16 µM): 103%
- viability, T/C (second compound 0.1 µM, first compound 10 µM): 95.8%
- viability, T/C [5]: 103%
- viability, T/C [6]: 103%
- viability, T/C (second compound 0.316 µM, first compound 0.316 µM): 110%
- viability, T/C (second compound 0.316 µM, first compound 1 µM): 105%
- viability, T/C (second compound 0.316 µM, first compound 3.16 µM): 104%
- viability, T/C (second compound 0.316 µM, first compound 10 µM): 104%
- viability, T/C [7]: 110%
- viability, T/C [8]: 107%
- viability, T/C (second compound 1 µM, first compound 0.316 µM): 107%
- viability, T/C (second compound 1 µM, first compound 1 µM): 106%
- viability, T/C (second compound 1 µM, first compound 3.16 µM): 108%
- viability, T/C (second compound 1 µM, first compound 10 µM): 90.8%
- viability, T/C [9]: 108%
- viability, T/C [10]: 101%
- viability, T/C (second compound 3.16 µM, first compound 0.316 µM): 102%
- viability, T/C (second compound 3.16 µM, first compound 1 µM): 110%
- viability, T/C (second compound 3.16 µM, first compound 3.16 µM): 115%
- viability, T/C (second compound 3.16 µM, first compound 10 µM): 89.7%
- viability, T/C [11]: 104%
- viability, T/C [12]: 100%
- viability, T/C (second compound 10 µM, first compound 0.316 µM): 112%
- viability, T/C (second compound 10 µM, first compound 1 µM): 105%
- viability, T/C (second compound 10 µM, first compound 3.16 µM): 114%
- viability, T/C (second compound 10 µM, first compound 10 µM): 88.3%
